According to US10221163B2 (priority 2015, dated 2019):
Read-outs that look alike come from different tables or passages of the source.

Columns and labels:
NDM-1 = NDM-1 (Klebsiella pneumoniae, UniProt C7C422); test: biochemical; type: biochemical; details: fluorescence assay, CCF2-FA substrate, 1 pM enzyme, 2 hours at 25° C.; read-out: NDM-1 IC50
Outline: (§1)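 Inhibitor was mixed with the metallo-β-lactamase and CCF2-FA. After 2 hours at 25° C, fluorescence of the coumarin–fluorescein cephalosporin substrate was read. IC50 was calculated with a 4-parameter fit.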

IMP-1 = IMP-1 (Serratia marcescens, UniProt P52699); test: biochemical; type: biochemical; details: fluorescence assay, CCF2-FA substrate, 2 pM enzyme, 2 hours at 25° C.; read-out: IMP-1 IC50
Outline: as §1

[1] = test system: Klebsiella pneumoniae expressing VIM-1 (IHMA599644); type: cell-based; details: for Klebsiella pneumoniae MITC95: VIM-1 strain IHMA599644, with imipenem 1 μg/ml, 95% inhibition of growth; for Klebsiella pneumoniae expressing VIM-1 (IHMA599644) MITC95: with imipenem 1 μg/ml, 95% inhibition of bacterial growth
Outline: (§2)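 Growth by absorbance after 22–24 h at 35°C defined the read-out, with imipenem fixed at 1 μg/ml alongside compound. Inocula came from overnight blood-agar colonies at 35°C, resuspended in saline and diluted 1:100 in 1.1×CAMHB.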

[2] = test system: Serratia marcescens expressing IMP-1 (CL5741); type: cell-based; details: for Serratia marcescens MITC95: IMP-1 strain CL5741, with imipenem 1 μg/ml, 95% inhibition of growth; for Serratia marcescens expressing IMP-1 (CL5741) MITC95: with imipenem 1 μg/ml, 95% inhibition of bacterial growth
Outline: as §2

[3] = test system: Escherichia coli expressing NDM-1 (CLB30005, CLB30016); type: cell-based; details: with imipenem 1 μg/ml; for Escherichia coli MITC95: NDM-1 strain, 95% inhibition of growth; for Escherichia coli expressing NDM-1 (CLB30016) MITC95: 95% inhibition of bacterial growth
Outline: as §2

[4] = test system: Pseudomonas aeruginosa efflux+ (MB9798), IMP-1; type: cell-based; details: concentration restoring susceptibility to imipenem at 2 μg/mL in the presence of a class A, C, D serine β-lactamase inhibitor closely related to relebactam
Outline: (§3)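 Microbroth MIC tests in PAO1-background strains with fixed imipenem and/or ceftazidime, usually at the CLSI breakpoint, plus fixed class A/C β-lactamase inhibitor against AmpC. MBL inhibitor titrated; concentration restoring susceptibility recorded and compared as fold difference between efflux+ MB9798 and efflux− MB9799.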

VIM-1 = VIM-1 (Pseudomonas aeruginosa (strain ATCC 15692 / DSM 22644 / CIP 104116 / JCM 14847 / LMG 12228 / 1C / PRS 101 / PAO1), UniProt A0A0F7KYQ8); test: biochemical; details: CCF2-FA substrate, 30 pM enzyme, 2 hours at 25° C.
Outline: as §1

[5] = test system: Pseudomonas aeruginosa efflux− (MB9799), IMP-1; type: cell-based; details: concentration restoring susceptibility to imipenem at 2 μg/mL in the presence of a class A, C, D serine β-lactamase inhibitor closely related to relebactam
Outline: as §3

[6] = test system: Pseudomonas aeruginosa MB9798 vs MB9799; details: ratio MITC95 PA_9798/MITC95 PA_9799
Outline: as §3

[7] = fluorescence assay, read-out: VIM-1 IC50

IMP-1, sequence (P52699 whole entry, looked up, species assumed): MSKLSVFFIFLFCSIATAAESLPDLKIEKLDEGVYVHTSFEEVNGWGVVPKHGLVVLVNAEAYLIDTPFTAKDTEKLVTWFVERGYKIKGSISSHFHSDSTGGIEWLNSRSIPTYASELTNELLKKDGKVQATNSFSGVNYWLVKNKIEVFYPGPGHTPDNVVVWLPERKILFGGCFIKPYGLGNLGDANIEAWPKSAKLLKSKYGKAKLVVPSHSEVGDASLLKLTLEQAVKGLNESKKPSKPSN
NDM-1, sequence (C7C422 whole entry, looked up, species assumed): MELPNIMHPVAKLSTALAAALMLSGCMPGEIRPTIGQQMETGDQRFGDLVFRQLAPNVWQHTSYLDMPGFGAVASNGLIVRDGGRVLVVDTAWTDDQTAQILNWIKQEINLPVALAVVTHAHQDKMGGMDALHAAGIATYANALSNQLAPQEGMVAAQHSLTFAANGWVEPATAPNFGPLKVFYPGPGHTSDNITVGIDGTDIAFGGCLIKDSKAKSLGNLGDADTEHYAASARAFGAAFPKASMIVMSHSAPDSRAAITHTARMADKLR

## Cn1c(N)nc2c(-c3ccc(S(=O)(=O)NC[C@H](O)CN)c(S(N)(=O)=O)c3-c3nn[nH]n3)cccc21 [Example 302, (R)-4-(2-amino-1-methyl-1H-benzo[d]imidazol-4-yl)-N1-(3-amino-2-hydroxypropyl)-3-(2H-tetrazol-5-yl)benzene-1,2-disulfonamide]
NDM-1
  IC50: 0.0449 nM
IMP-1
  IC50: 0.341 nM
[1]
  Klebsiella pneumoniae MITC95: 1.563 µM
[2]
  Serratia marcescens MITC95: 0.7813 µM
[3]
  Escherichia coli MITC95: 0.7813 µM
[4]
  P. aeruginosa expressing IMP-1, efflux + (MB9798) MITC95: 0.7813 µM
VIM-1; VIM-1 IC50, fluorescence assay
  IC50: 0.141 nM
[5]
  P. aeruginosa expressing IMP-1, efflux − (MB9799) MITC95: 0.7813 µM
[6]
  Efflux ratio: 1.00

## NCCNC(=O)c1cccc(-c2ccc(S(=O)(=O)NCCN)c(S(N)(=O)=O)c2-c2nn[nH]n2)c1 [Example 334, N-(2-aminoethyl)-4′-(N-(2-aminoethyl)sulfamoyl)-3′-sulfamoyl-2′-(2H -tetrazol-5-yl)-[1,1′-biphenyl]-3-carboxamide]
NDM-1
  IC50: 1.32 nM
IMP-1
  IC50: 4.6 nM
[1]
  Klebsiella pneumoniae MITC95: 0.7813 µM
[2]
  Serratia marcescens MITC95: 0.7813 µM
[3]
  Escherichia coli MITC95: 0.3906 µM
[4]
  P. aeruginosa expressing IMP-1, efflux + (MB9798) MITC95: 1.563 µM
VIM-1; [7]
  IC50: 0.247 nM
[5]
  P. aeruginosa expressing IMP-1, efflux − (MB9799) MITC95: 0.7813 µM
[6]
  Efflux ratio: 2.00

## CN1CCC(CNS(=O)(=O)c2ccc(-c3cccc4sc(N)nc34)c(-c3nnn[nH]3)c2S(N)(=O)=O)C1.O=C(O)C(F)(F)F (stereo not drawn) [Example 102, 3-((4-(2-aminobenzo[d]thiazol-4-yl)-2-sulfamoyl-3-(1H-tetrazol-5-yl)phenylsulfonamido)methyl)-1-methylpyrrolidin-1-ium 2,2,2-trifluoroacetate]
NDM-1
  IC50: 0.0324 nM
IMP-1
  IC50: 0.263 nM
[1]
  Klebsiella pneumoniae expressing VIM-1 (IHMA599644) MITC95: 3.125 µM
[2]
  Serratia marcescens expressing IMP-1 (CL5741) MITC95: 1.563 µM
[3]
  Escherichia coli expressing NDM-1 (CLB30016) MITC95: 3.125 µM
[4]
  P. aeruginosa expressing IMP-1, efflux + (MB9798) MITC95: 0.7813 µM
VIM-1; VIM-1 IC50, fluorescence assay
  IC50: 0.194 nM
[5]
  P. aeruginosa expressing IMP-1, efflux − (MB9799) MITC95: 1.563 µM
[6]
  Efflux ratio: 0.50

## Nc1nc2c(-c3ccc(S(=O)(=O)NCc4ccccn4)c(S(N)(=O)=O)c3-c3nnn[nH]3)cccc2s1.O=C(O)C(F)(F)F [Example 106, 2-((4-(2-aminobenzo[d]thiazol-4-yl)-2-sulfamoyl-3-(1H-tetrazol-5-yl)phenylsulfonamido)methyl)pyridin-1-ium 2,2,2-trifluoroacetate]
NDM-1
  IC50: 0.0733 nM
IMP-1
  IC50: 0.379 nM
[1]
  Klebsiella pneumoniae expressing VIM-1 (IHMA599644) MITC95: 12.5 µM
[2]
  Serratia marcescens expressing IMP-1 (CL5741) MITC95: 3.125 µM
[3]
  Escherichia coli expressing NDM-1 (CLB30016) MITC95: 6.25 µM
[4]
  P. aeruginosa expressing IMP-1, efflux + (MB9798) MITC95: 12.5 µM
VIM-1; [7]
  IC50: 0.236 nM
[5]
  P. aeruginosa expressing IMP-1, efflux − (MB9799) MITC95: 3.125 µM
[6]
  Efflux ratio: 4.00

## Cn1nnc2ccc(-c3ccc(S(=O)(=O)N[C@@H]4CCNC4)c(S(N)(=O)=O)c3-c3nnn[nH]3)cc21 [Example 134, (R)-4-(1-methyl-1H-benzo[d][1,2,3]triazol-6-yl)-N1-(pyrrolidin-3-yl)-3-(1H-tetrazol-5-yl)benzene-1,2-disulfonamide]
NDM-1
  IC50: 0.301 nM
IMP-1
  IC50: 2.07 nM
[1]
  Klebsiella pneumoniae expressing VIM-1 (IHMA599644) MITC95: 3.125 µM
[2]
  Serratia marcescens expressing IMP-1 (CL5741) MITC95: 3.125 µM
[3]
  Escherichia coli expressing NDM-1 (CLB30016) MITC95: 1.563 µM
[4]
  P. aeruginosa expressing IMP-1, efflux + (MB9798) MITC95: 25 µM
VIM-1; VIM-1 IC50, fluorescence assay
  IC50: 0.14 nM
[5]
  P. aeruginosa expressing IMP-1, efflux − (MB9799) MITC95: 1.563 µM
[6]
  Efflux ratio: 15.99

## NS(=O)(=O)c1c(S(=O)(=O)N[C@H]2C[C@H](N)C2)ccc(-c2cccc3[nH]cnc23)c1-c1nn[nH]n1 [Example 200, N^1-((1r,3r)-3-aminocyclobutyl)-4-(1H-benzo[d]imidazol-4-yl)-3-(2H-tetrazol-5-yl)benzene-1,2-disulfonamide]
NDM-1
  IC50: 0.0527 nM
IMP-1
  IC50: 0.276 nM
[1]
  Klebsiella pneumoniae expressing VIM-1 (IHMA599644) MITC95: 3.125 µM
[2]
  Serratia marcescens expressing IMP-1 (CL5741) MITC95: 1.563 µM
[3]
  Escherichia coli expressing NDM-1 (CLB30016) MITC95: 1.563 µM
[4]
  P. aeruginosa expressing IMP-1, efflux + (MB9798) MITC95: 0.7813 µM
VIM-1; [7]
  IC50: 0.114 nM
[5]
  P. aeruginosa expressing IMP-1, efflux − (MB9799) MITC95: 0.7813 µM
[6]
  Efflux ratio: 1.00

## Nc1nc2c(-c3ccc(S(=O)(=O)NC[C@]4(N)CCNC4)c(S(N)(=O)=O)c3-c3nn[nH]n3)cccc2[nH]1 [Example 250, (S)-4-(2-amino-1H-benzo[d]imidazol-4-yl)-N1-((3-aminopyrrolidin-3-yl)methyl)-3-(2H-tetrazol-5-yl)benzene-1,2-disulfonamide]
NDM-1
  IC50: 0.0335 nM
IMP-1
  IC50: 0.513 nM
[1]
  Klebsiella pneumoniae MITC95: 1.563 µM
[2]
  Serratia marcescens MITC95: 0.7813 µM
[3]
  Escherichia coli MITC95: 0.3906 µM
[4]
  P. aeruginosa expressing IMP-1, efflux + (MB9798) MITC95: 0.7813 µM
VIM-1; [7]
  IC50: 0.2 nM
[5]
  P. aeruginosa expressing IMP-1, efflux − (MB9799) MITC95: 0.7813 µM
[6]
  Efflux ratio: 1.00

## Cn1nc2cccc(-c3ccc(S(=O)(=O)N[C@@H]4CCNC4)c(S(N)(=O)=O)c3-c3nn[nH]n3)c2n1 [Example 281, (R)-4-(2-methyl-2H-benzo[d][1,2,3]triazol-4-yl)-N1-(pyrrolidin-3-yl)-3-(2H-tetrazol-5-yl)benzene-1,2-disulfonamide]
NDM-1
  IC50: 0.0166 nM
IMP-1
  IC50: 0.75 nM
[1]
  Klebsiella pneumoniae MITC95: 3.125 µM
[2]
  Serratia marcescens MITC95: 1.563 µM
[3]
  Escherichia coli MITC95: 1.563 µM
[4]
  P. aeruginosa expressing IMP-1, efflux + (MB9798) MITC95: 3.125 µM
VIM-1; [7]
  IC50: 0.0515 nM
[5]
  P. aeruginosa expressing IMP-1, efflux − (MB9799) MITC95: 1.563 µM
[6]
  Efflux ratio: 2.00

## Nc1nc2c(-c3ccc(S(=O)(=O)N[C@H]4CN[C@@H](CO)C4)c(S(N)(=O)=O)c3-c3nnn[nH]3)cccc2s1 [Example 81, 4-(2-amino-1,3-benzothiazol-4-yl)-N1-[(3R,5R)-5-(hydroxymethyl)pyrrolidin-3-yl]-3-(1H-tetrazol-5-yl)benzene-1,2-disulfonamide]
NDM-1
  IC50: 0.0286 nM
IMP-1
  IC50: 0.191 nM
[1]
  Klebsiella pneumoniae expressing VIM-1 (IHMA599644) MITC95: 1.563 µM
[2]
  Serratia marcescens expressing IMP-1 (CL5741) MITC95: 1.563 µM
[3]
  Escherichia coli expressing NDM-1 (CLB30016) MITC95: 1.563 µM
[4]
  P. aeruginosa expressing IMP-1, efflux + (MB9798) MITC95: 0.7813 µM
VIM-1; VIM-1 IC50, fluorescence assay
  IC50: 0.135 nM
[5]
  P. aeruginosa expressing IMP-1, efflux − (MB9799) MITC95: 1.563 µM
[6]
  Efflux ratio: 0.50

## Nc1ncccc1-c1ccc(S(=O)(=O)NC[C@@H](N)CO)c(S(N)(=O)=O)c1-c1nn[nH]n1 [Example 214, (R)-N1-(2-amino-3-hydroxypropyl)-4-(2-amino-pyridin-3-yl)-3-(2H-tetrazol-5-yl)benzene-1,2-disulfonamide]
NDM-1
  IC50: 0.566 nM
IMP-1
  IC50: 8.49 nM
[1]
  Klebsiella pneumoniae expressing VIM-1 (IHMA599644) MITC95: 3.125 µM
[2]
  Serratia marcescens expressing IMP-1 (CL5741) MITC95: 1.563 µM
[3]
  Escherichia coli expressing NDM-1 (CLB30016) MITC95: 0.7813 µM
[4]
  P. aeruginosa expressing IMP-1, efflux + (MB9798) MITC95: 12.5 µM
VIM-1; [7]
  IC50: 0.732 nM
[5]
  P. aeruginosa expressing IMP-1, efflux − (MB9799) MITC95: 1.563 µM
[6]
  Efflux ratio: 8.00
